Read-outs that look alike come from different tables or passages of the source.
Key:
ROCK2 [1] = molecular target: T1, ROCK2 (Homo sapiens (Human), UniProt O75116); conditions: reported by MLSCN, assay ID 644; read-out: ROCK2 enzymatic activity IC50; cited from earlier work
Aurora-A = Aurora-A (Homo sapiens (Human), UniProt O14965); assay: preliminary kinase-selectivity profile, Aurora-A; format: biochemical
ROCK2 [2] = molecular target: T1, ROCK2; assay: FRET-based Z'-Lyte kinase assay, ROCK2; format: biochemical;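 note: kinase phosphorylates a coumarin/fluorescein FRET peptide, then a protease cleaves unphosphorylated peptide, read as donor/acceptor emission ratio after 400 nm excitation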
From the text: (§1) A) In the primary reaction, the Rho kinases phosphorylates a single serine or threonine residue in a synthetic FRET-peptide. This FRET-peptide is doubly labeled with a fluorophore at each end—coumarin (the FRET donor) on one end and fluorescein (the FRET acceptor) on the other—and also contains a single phosphorylation site which either overlaps with or lies adjacent to the proteolytic site. B) In the secondary reaction, a site-specific protease recognizes and cleaves the non-phosphorylated FRET-peptide. Cleavage disrupts FRET between the donor and acceptor fluorophores on the FRET-peptide, whereas uncleaved, phosphorylated FRET-peptides maintain FRET. Kinases phosphorylated FRET-peptides cannot be cleaved by the protease. […] Cleavage disrupts FRET and causes a decrease in the fluorescein fluorescence signal and a strong increase in the coumarin fluorescence signal. Therefore the extension of the phosphprylation can be measured by FRET-signal remaining the protease reaction. The assay uses a ratiometric method, which calculates the ratio of donor emission to acceptor emission (the emission ratio) after excitation of the donor fluorophore at 400 nm, to quantitate reaction progress.
(§2) All compounds were systematically screened against ROCK1 and ROCK2.

ROCK1 = ROCK1 (Homo sapiens (Human), UniProt Q13464); assay: FRET-based Z'-Lyte kinase assay, ROCK1; format: biochemical;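 note: kinase phosphorylates a coumarin/fluorescein-labelled FRET peptide, then a protease cleaves unphosphorylated peptide, progress read as donor to acceptor emission ratio after 400 nm excitation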
From the text: as §1, §2

[3] = test system: phosphorylation of MYPT1, a substrate for ROCK kinase, in H1299 cells; assay: phosphorylation levels of MYPT1 in intact H1299 cells (western blot); format: cell-based, human; conditions: for IC50: H1299 human lung cancer cells, read-out: IC50 for inhibition of phosphorylation of MYPT1
breast tumors = assay: transgenic mouse breast cancer model (rat Her2 under MMTV promoter); format: in vivo; conditions: 200 mpk/day, once a day for 14 days; last day of treatment relative to day of initiation
Experimental: The anti tumor activity of 1bo was determined in vivo in a transgenic mouse breast cancer model. In this model, the mice harbor the rat Her2 gene under the control of the MMTV promoter. These mice therefore spontaneously develop tumors in their mammary tissues. Breast tumors were measured beginning at the time of tumor onset and treatment (once a day for 14 days) with vehicle (20% HPCD) or 1bo (200 mpk/day) began when tumor volumes reached about 200 to 2,300 mm^3. A wide range of tumor volumes was used to ensure that responses were not volume dependent. […] The percent change was calculated from the tumor volume on the last day of treatment relative to the volume on the day of initiation of treatment. […] Thus, on average the breast tumors from 1bo treated mice were 6.6 fold smaller compared to those tumors from mice treated with the vehicle control.

T1 sequence (O75116 whole entry, species assumed): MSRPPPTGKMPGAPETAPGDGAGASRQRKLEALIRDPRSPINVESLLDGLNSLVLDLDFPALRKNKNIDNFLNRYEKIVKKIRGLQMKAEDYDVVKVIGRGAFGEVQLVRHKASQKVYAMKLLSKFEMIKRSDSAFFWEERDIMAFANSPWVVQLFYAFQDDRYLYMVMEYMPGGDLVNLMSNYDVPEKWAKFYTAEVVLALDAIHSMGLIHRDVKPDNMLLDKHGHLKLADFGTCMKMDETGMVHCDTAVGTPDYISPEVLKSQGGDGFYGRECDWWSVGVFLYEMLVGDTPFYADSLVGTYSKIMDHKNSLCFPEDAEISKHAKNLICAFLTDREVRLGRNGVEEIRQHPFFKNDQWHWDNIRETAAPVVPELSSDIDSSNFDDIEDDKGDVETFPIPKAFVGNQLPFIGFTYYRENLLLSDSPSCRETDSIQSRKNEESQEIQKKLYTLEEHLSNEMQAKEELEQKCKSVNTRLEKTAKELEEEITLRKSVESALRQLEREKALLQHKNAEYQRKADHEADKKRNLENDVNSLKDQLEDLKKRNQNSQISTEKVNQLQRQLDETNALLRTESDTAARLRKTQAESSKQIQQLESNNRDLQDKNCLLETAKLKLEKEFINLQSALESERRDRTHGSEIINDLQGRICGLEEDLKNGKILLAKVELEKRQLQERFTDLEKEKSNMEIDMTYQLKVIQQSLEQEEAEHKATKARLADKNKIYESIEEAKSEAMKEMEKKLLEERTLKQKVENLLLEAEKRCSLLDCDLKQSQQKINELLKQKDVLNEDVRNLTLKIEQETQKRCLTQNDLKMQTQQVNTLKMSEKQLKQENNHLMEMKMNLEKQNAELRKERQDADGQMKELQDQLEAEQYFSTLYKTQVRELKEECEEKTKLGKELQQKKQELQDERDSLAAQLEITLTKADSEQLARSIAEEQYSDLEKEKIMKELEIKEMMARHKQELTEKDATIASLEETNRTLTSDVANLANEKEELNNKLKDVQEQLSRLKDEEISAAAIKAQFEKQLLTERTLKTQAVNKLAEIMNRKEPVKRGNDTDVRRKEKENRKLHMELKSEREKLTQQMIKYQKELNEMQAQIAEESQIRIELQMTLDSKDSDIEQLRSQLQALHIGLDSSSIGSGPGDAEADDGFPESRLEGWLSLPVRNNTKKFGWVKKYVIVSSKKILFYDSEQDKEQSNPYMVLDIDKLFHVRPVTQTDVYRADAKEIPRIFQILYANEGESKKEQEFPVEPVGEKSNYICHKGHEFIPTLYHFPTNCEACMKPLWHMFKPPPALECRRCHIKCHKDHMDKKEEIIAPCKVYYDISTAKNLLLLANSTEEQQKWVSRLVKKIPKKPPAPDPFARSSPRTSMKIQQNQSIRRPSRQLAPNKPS
Sequence of ROCK1 (Q13464 whole entry, species assumed): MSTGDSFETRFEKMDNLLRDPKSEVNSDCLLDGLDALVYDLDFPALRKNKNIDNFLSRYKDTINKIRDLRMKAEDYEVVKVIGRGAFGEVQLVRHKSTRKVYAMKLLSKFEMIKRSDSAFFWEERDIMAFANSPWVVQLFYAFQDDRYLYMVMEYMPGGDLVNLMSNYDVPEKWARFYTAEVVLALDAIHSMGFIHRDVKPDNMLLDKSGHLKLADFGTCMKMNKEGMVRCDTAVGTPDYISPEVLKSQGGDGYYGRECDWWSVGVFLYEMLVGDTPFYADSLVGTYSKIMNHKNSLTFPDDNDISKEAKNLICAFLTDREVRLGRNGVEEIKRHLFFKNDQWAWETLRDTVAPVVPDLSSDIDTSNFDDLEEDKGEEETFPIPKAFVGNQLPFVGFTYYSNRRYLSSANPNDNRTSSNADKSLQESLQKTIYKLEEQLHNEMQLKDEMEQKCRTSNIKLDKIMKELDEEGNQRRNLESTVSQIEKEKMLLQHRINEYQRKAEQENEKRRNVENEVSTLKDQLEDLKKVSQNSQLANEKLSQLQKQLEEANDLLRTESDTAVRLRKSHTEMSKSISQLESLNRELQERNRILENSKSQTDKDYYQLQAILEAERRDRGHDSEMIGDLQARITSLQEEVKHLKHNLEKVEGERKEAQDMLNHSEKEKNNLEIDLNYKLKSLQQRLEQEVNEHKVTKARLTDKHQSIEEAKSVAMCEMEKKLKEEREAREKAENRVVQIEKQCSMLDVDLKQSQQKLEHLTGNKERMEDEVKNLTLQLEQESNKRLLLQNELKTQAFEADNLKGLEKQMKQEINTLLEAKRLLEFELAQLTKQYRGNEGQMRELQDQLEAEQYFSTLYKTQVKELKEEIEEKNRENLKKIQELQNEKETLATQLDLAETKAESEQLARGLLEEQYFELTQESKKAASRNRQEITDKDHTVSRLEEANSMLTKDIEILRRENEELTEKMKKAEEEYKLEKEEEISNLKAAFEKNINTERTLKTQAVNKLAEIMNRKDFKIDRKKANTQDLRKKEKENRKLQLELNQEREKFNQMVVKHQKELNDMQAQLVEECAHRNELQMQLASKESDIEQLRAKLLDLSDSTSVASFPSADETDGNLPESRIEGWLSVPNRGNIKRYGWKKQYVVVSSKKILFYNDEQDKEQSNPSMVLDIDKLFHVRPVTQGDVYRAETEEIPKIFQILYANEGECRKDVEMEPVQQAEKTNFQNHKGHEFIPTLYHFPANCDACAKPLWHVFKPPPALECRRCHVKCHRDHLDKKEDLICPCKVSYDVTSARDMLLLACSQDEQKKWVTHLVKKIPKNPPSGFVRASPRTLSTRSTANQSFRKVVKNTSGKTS
Sequence of Aurora-A (O14965 whole entry): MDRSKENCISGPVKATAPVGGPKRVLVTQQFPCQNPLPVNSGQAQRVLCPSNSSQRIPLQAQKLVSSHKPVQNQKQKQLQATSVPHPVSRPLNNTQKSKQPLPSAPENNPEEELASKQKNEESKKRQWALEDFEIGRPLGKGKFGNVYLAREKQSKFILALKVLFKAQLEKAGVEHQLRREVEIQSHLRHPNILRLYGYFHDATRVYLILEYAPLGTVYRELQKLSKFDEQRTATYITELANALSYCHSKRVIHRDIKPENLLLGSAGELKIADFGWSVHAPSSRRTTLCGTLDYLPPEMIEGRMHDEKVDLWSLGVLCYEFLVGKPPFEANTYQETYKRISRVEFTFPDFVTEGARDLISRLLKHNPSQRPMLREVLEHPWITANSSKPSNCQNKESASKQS

Compound | IC50 (ROCK1; read-out: ROCK1 IC50) [µM] | IC50 (ROCK2 [2]; read-out: IC50 ± SD (μM) ROCK2) [µM] | IC50 (ROCK1; read-out: IC50 ± SD (μM) ROCK1) [µM] | other results
O=C(Nc1nc(-c2ccncc2)cs1)C1COc2ccccc2O1 (stereo not drawn) [CID5056270, reference compound] | 0.076 | – | – | IC50 (ROCK2 [1]): < 3 nM; IC50 (Aurora-A): > 100000 nM; IC50 (ROCK2 [2]; read-out: ROCK2 IC50): 0.04 µM
COc1ccc(CNC(=O)Nc2nc(-c3ccncc3)cs2)cc1 [Compound 1am, 1-(4-Methoxybenzyl)-3-(4-(pyridin-4-yl)thiazol-2-yl)urea] | – | – | – | effect on phosphorylation of MYPT1 ([3]; H1299 cells, 10 μM): did not affect; inhibition at 50 µM (ROCK1; read-out: ROCK1 % inhibition @ 50 μM, 50 μM compound): 9.12%
O=C(NCc1cccc(O)c1)Nc1nc(-c2ccncc2)cs1 [Compound 1bo, 1-(3-Hydroxybenzyl)-3-(4-(pyridin-4-yl)thiazol-2-yl)urea] | 0.008 | – | – | IC50 [3]: 500 nM; average percent change in tumor volume (breast tumors): 8.9%
O=C(NCc1cccc(O)c1)Nc1nc(-c2ccncc2)cs1 [Compound 1bo-Mes, 1-(3-hydroxybenzyl)-3-(4-(pyridin-4-yl)thiazol-2-yl)urea methanesulfonate] | 0.012 | – | – | IC50 ([3]; NCI-H1299): 500 nM; IC50 (ROCK1; methanesulfonate, read-out: IC50 ± SD (μM) ROCK1): 0.013 µM
O=C(Nc1nc(-c2ccncc2)cs1)N[C@H]1CCCc2ccccc21 [Compound 1cw] | – | 3.35 ± 0.87 | 6.25 ± 1.36 | –
O=C(Nc1nc(-c2ccncc2)cs1)Nc1ccccc1Cl [Compound 6e, 1-(2-Chlorophenyl)-3-(4-(pyridin-4-yl)thiazol-2-yl)urea] | – | 3.75 ± 0.39 | 2.49 ± 1.07 | –
O=C(Nc1nc(-c2ccncc2)cs1)N1CCN(c2ccncc2)CC1 [Compound 12a, 4-(Pyridin-4-yl)-N-(4-(pyridin-4-yl)thiazol-2-yl)piperazine-1-carboxamide] | – | 8.35 ± 2.36 | 16.9 ± 2.11 | –
